Key:
[1] = molecular target: T1, human GP IIb/IIIa receptor (Homo sapiens, UniProt P05106+P08514); assay: GPIIb/IIIa affinity assay (displacement of tritiated reference compound from immobilized receptor); format: binding; conditions: purified human GPIIb/IIIa, 60 nM 3H-labeled reference compound, 1 hour at room temperature
T1 construct: human GPIIb/IIIa purified from human platelets was immobilized on a 96-well solid plate; purchased Enzyme Research Laboratories Inc. (South Bend, Ind.); host or cells: human platelets (natural source, detergent-solubilised)
T1 sequence (P08514 32-887 limits assumed): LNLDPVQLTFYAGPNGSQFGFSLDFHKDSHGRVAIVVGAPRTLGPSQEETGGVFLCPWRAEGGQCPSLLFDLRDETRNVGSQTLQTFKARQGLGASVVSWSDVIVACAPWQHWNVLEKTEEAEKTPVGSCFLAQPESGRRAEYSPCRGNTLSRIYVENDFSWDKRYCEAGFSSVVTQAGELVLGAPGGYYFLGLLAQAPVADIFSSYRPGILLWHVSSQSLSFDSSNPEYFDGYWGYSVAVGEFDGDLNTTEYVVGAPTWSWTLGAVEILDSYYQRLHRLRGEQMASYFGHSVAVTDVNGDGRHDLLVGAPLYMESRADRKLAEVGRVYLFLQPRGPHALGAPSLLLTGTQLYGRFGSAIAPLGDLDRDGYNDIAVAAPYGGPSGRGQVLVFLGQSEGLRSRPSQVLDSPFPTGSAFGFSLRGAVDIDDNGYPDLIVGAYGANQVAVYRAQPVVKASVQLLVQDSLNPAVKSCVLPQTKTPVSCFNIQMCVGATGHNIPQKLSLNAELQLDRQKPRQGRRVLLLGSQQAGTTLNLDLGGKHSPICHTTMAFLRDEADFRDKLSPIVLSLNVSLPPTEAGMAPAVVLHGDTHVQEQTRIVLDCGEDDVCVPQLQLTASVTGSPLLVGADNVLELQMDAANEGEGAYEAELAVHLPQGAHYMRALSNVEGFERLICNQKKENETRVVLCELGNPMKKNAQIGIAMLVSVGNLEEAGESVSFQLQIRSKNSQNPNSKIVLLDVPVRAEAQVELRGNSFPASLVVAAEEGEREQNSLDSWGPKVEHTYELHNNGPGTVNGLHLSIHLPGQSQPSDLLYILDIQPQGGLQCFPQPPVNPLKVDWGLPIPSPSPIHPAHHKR
T1 sequence (P08514 891-1039 partner limits assumed): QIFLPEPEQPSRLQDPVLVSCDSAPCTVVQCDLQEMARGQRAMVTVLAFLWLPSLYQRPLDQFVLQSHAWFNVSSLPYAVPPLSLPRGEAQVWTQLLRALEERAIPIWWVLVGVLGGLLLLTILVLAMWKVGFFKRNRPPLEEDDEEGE
T1 sequence (P05106 27-788): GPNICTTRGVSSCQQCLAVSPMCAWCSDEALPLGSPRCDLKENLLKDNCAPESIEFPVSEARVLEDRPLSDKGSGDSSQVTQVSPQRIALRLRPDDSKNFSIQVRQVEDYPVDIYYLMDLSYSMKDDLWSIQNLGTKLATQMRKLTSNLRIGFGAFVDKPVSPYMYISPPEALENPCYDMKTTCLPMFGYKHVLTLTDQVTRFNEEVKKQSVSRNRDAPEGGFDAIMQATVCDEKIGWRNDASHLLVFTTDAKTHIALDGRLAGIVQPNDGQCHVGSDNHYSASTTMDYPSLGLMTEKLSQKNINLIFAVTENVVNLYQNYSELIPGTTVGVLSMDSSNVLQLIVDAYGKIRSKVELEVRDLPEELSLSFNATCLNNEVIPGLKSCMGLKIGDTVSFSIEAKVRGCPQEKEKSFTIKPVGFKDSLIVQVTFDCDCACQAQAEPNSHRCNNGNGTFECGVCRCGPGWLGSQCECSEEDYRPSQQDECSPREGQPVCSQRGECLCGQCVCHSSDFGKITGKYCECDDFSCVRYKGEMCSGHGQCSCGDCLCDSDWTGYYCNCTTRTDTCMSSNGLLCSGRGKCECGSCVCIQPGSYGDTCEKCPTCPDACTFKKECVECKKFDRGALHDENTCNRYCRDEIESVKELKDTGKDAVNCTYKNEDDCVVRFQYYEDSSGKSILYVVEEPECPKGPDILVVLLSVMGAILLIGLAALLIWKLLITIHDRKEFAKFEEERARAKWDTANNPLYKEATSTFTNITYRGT
Protocol: Affinity assay: In the first step human GPIIb/IIIa purified from human platelets was immobilized on a 96-well solid plate. After 48 hours the plates were washed and the unspecific binding sites were blocked with Roti®-Block. 2. In the next step, the plates were simultaneously incubated with a tritium labeled known GPIIb/IIIa binder (^3H) mixed with increasing concentrations of the novel compounds (inhibitor). The higher the affinity of the inhibitor, the lower the bound fraction of the tritiated known GPIIb/IIIa binder (^3H) was. The fraction of tritiated compound (^3H), which is not displaced by inhibitor, was measured in a microplate scintillation counter.
Purified human glycoprotein IIb/IIIa (20 mM Tris-HCl, 0.1 M NaCl, 0.1% Triton X-100, 1 mM CaCl2, 0.05% NaN3, 50% Glycerol, pH 7.4) was purchased from Enzyme Research Laboratories Inc. (South Bend, Ind.). The GPIIb/IIIa receptor was diluted in phosphate-buffered saline (Dulbecco's Phosphate Buffered Saline (D-PBS (+)) with calcium and magnesium, GIBCO®, Invitrogen) with 0.01% bovine serum albumin (albumin from bovine serum—lyophilized powder, 96%, Sigma).
The GPIIb/IIIa receptor was immobilized 48 hours at least (100 μL per well, 48 to maximum 96 hours) on a 96-well solid plate (Immuno Plate MaxiSorp™, Nunc, Roskilde, Denmark) at 277 K to 280 K and at a concentration of 0.1 μg per well to 1 μg per well. As negative control one row of the plate (n=8) was incubated just with 2% bovine serum albumin (200 μL per well, albumin from bovine serum—lyophilized powder, ≧96%, Sigma, diluted in D-PBS (+)).
After washing three times with the wash buffer (230 μL per well, Dulbecco's Phosphate Buffered Saline (D-PBS (−)) contains no calcium or magnesium, GIBCO®, Invitrogen) residual exposed plastic and unspecific binding sites were blocked by incubating the plate with a special blocking solution (200 μL per well, Roti®-Block, Car Roth GmbH Co KG, Karlsruhe) containing 2% bovine serum albumin (Albumin from bovine serum—lyophilized powder, ≧96%, Sigma) 1 hour at room temperature.
After washing three times with the wash buffer 50 μL of tritiated reference compound (60 nM, ^3H-labeled compound) and 50 μL of novel compound (inhibitor) were simultaneously added to each well and incubated for 1 hour at room temperature. Several concentrations of each novel inhibitor (0.1, 1, 2, 5, 10, 20 50, 100, 200, 500, 1000, 2000, 5000, 10000 and 20000 nM) were investigated. At each concentration of inhibitor a fourfold determination was performed.
The maximum value of tritiated reference compound was determined without addition of inhibitor (n=8). To exclude unspecific binding of ^3H— reference compound wells without glycoprotein receptors were used as negative controls (n=12, identically treated just without GPIIb/IIIa receptors).
After one hour the plate was washed three times with phosphate-buffered saline (200 μL per well, Dulbecco's Phosphate Buffered Saline (D-PBS (+)), GIBCO®, Invitrogen). Following 140 μL of liquid scintillation cocktail (MicroScint™ 40 aqueous, Perkin Elmer) was added to each well. After 15 min at room temperature the plates were measured at the microplate scintillation counter (TopCount NXT v2.13, Perkin Elmer, Packard Instrument Company).
In the first step human glycoprotein IIb/IIIa, which is purified from human platelets, was immobilized on a 96-well solid plate. After 48 hours at least the plates were washed and the unspecific binding sites were blocked with Roti®-Block. In the next step, the plates were simultaneously incubated with a tritium labeled reference compound and the novel small molecule compound (inhibitor). The higher the affinity of the inhibitor, the smaller is the bound fraction of reference compound. The fraction of tritiated reference compound, which is not displaced by inhibitor, was measured at a microplate scintillation counter. The higher the affinity of the inhibitor, the smaller is the bound fraction of tritium-labeled reference compound. […]

[2] = Relaxivity measurements at 1.41 T in water and plasma; format: physicochemical; conditions: relaxivity normalized to Gd, 37° C.
Protocol: Relaxivity measurements at 1.41 T were performed using a MiniSpec mq60 spectrometer (Bruker Analytik, Karlsruhe) operating at a resonance frequency of 60 MHz and a temperature of 37° C. The T1 relaxation times were determined using the standard inversion recovery method. The T2 measurements were done by using the Carr-Purcell-Meiboom-Gill (CPMG) pulse sequence. All measurements were done at concentrations between 0.05 mM and 1 mM of Gd in water and plasma.
The relaxivities ri (where i=1, 2) were calculated on the basis of the measured relaxation rates Ri in water and plasma:
where Ri(0) represent the relaxation rate of the respective solvent and CGd the concentration of the compound normalized to the Gadolium.

[3] = tested on: human activated platelets; assay: Binding of investigated compounds to human activated platelets (ICP-MS of Gd in pellet and supernatant); format: cell-based; conditions: incubation concentration 1 μM molecule
Protocol: For each experiment fresh blood was taken from a volunteer using 10 mL citrate-tubes (Sarstedt S-Monovette 02.1067.001, 10 mL, Citrate 3.13%). The 10 mL citrate-tubes were carefully inverted 10 times to mix blood and anticoagulant. The tubes were stored in an incubator at a temperature of 37° C. until centrifugation (Heraeus miniTherm CTT with integrated rotation- and turning device, turning speed: 19 rotations per minute, Heraeus Instruments GmbH, Hanau/Germany).
For plasma preparation tube centrifugation was carried out for 15 minutes at 1811 g at room temperature (Eppendorf, Centrifuge 5810R). Blood was centrifuged 15 minutes at 201 g at room temperature to produce platelet-rich plasma. The tubes were stored for 30 min at room temperature to get a better separation. The separated platelet-rich plasma was finally centrifuged for further 3 min at 453 g to remove the remaining erythrocytes. The platelet-rich plasma was activated using a final concentration of 5 μM Adenosindiphosphate (ADP, Sigma). The activated platelet-rich plasma was incubated 20 minutes with different concentrations of gadolinium-labeled compound and subsequently was centrifuged 3 minutes at 1360 g. 20 μL of incubation solution was taken to determine the concentration (n=3). […] The gadolinium concentration of supernatant and pellet was determined using an inductively coupled plasma mass spectrometry (ICP-MS Agilent 7500a).
The results for incubation concentration of 1 μM gadolinium-labeled compound are summarized in table 3 (in comparison to Gadovist® standard dose: 100 μmol Gd/kg body weight).

SMILES: CC(C(=O)NCC(=O)NC[C@H](NC(=O)CNC(=O)C(C)N1CCN(CC(=O)O)CCN(CC(=O)O)CCN(CC(=O)O)CC1)C(=O)NC[C@H](NC(=O)[C@H](CNC(=O)CNC(=O)C(C)N1CCN(CC(=O)O)CCN(CC(=O)O)CCN(CC(=O)O)CC1)NC(=O)CNC(=O)C(C)N1CCN(CC(=O)O)CCN(CC(=O)O)CCN(CC(=O)O)CC1)C(=O)NCCCCc1cccc(C#Cc2cncc([C@H](CC(=O)O)NC(=O)[C@@H]3CCCN(C(=O)CCC4CCNCC4)C3)c2)c1)N1CCN(CC(=O)O)CCN(CC(=O)O)CCN(CC(=O)O)CC1 (some centres unmarked) [Example 8]
- IC50 [1]: 21 nM
- r1 plasma ([2]; plasma): 14.5 L/mmol/s
- r1 water ([2]; water): 12.6 L/mmol/s
- Concentration within platelet pellet ([3]; ADP-activated platelet-rich plasma, 20 minutes, pellet washed): 26.7 ± 1.5 μM Gd
- pellet/supernatant ([3]; ratio of Gd concentration): 254 ± 26 (n = 3)

Source: patent US20160008490A1, “METAL CHELATE COMPOUNDS FOR BINDING TO THE PLATELET SPECIFIC GLYCOPROTEIN IIB/IIIA” (BAYER PHARMA AKTIENGESELLSCHAFT, priority 2013, published 2016)
